These results are taken from patent US20020006933A1 (TAP Holdings, Inc., priority 2000, published 2002).

A short description of data set [1]: clinical. The conditions noted are these: human, in vivo; for Cmax: Mean.
For data set [2], the system named is humans. In words: Clinical experience with sublingual apomorphine tablets in humans (efficacy, side effects).
Where [3] appears, read: humans, 2 to 4 mg sublingual tablets, clinical experience.

Turning to `CN1CCc2cccc3c2[C@H]1Cc1ccc(O)c(O)c1-3` [Apomorphine, (R)-5,6,6a,7-tetrahydro-6-methyl-4H-dibenzo-[de,g]quinoline-10,11-diol], in data set [1] (sc, 1 mg), the AUC(0-inf) (in general, total exposure, with the tail of the curve extrapolated) was determined as 3.39 ng·h/mL; the time to peak (Tmax) (usually the time at which the peak concentration occurs) is 20.4 min; the peak level (Cmax) was 3.22 ng/mL. In data set [1] (male, 2 mg), the AUC(0-inf) stood at 1.23 ng·h/mL; the Tmax stood at 44.4 min; the “cmax, Mean” value came out at 0.70 ng/mL; the Cmax (in general, the peak of the concentration-time curve) is approximately 0.7 ng/mL. In data set [1] (male, 4 mg), the AUC(0-inf) came to 2.37 ng·h/mL; the Tmax is 43.2 min; the “cmax, Mean” value was found to be 1.25 ng/mL; the highest concentration (Cmax) is approximately 1.25 ng/mL. In data set [1] (male, 5 mg), the area under the curve AUC(0-inf) is 2.92 ng·h/mL; the Tmax was 40.8 min; the “cmax, Mean” value was found to be 1.70 ng/mL; the Cmax was approximately 1.7 ng/mL. In data set [1] (male, 6 mg), the total exposure AUC(0-inf) came to 3.6 ng·h/mL; the Tmax worked out at 39.6 min; the “cmax, Mean” value was 1.91 ng/mL; the peak concentration (Cmax) is approximately 1.91 ng/mL. In data set [2] (setting [3]), the incidence of emesis came to 2% and the incidence of nausea entry was “about 13%”. For the same compound, the tolerability in humans entry in data set [2] (up to 8 mg of apomorphine tablets) is given as “well tolerated”. Further, the side-effects in humans entry in data set [2] (up to a 6 mg dose via sublingual tablet) is listed as “minimal side-effects”. The efficacy in humans entry in data set [2] (up to a 6 mg dose via sublingual tablet, sexual dysfunction) is “good efficacy”.
